# Like-named read-outs stand apart in the source and are kept apart here.
# Assays:
# [1] = test system: cell-mediated immunity (D.T.H. to SRBC); experiment: D.T.H. to SRBC in tumor-bearing (Sarcoma 180) mice, Test Example 2 (1); assay type: in vivo, CDF1 mice
# Method: The swelling degree on the footpad in mice was evaluated in the same way as in Test Example 1, except that the CDF1 mice employed for the test previously received an intraperitoneal inoculation of 10^6 Sarcoma 180 cells, and that arphamenine A was administered intraperitoneally once daily for 4 consecutive days, including the day of inoculation of SRBC, and two days after the administration, SRBC was given to the treated mice to elicit D.T.H. response.
# [2] = test system: cell-mediated immunity (D.T.H. response to sheep red blood cells); experiment: Delayed Type Hypersensitivity (D.T.H.) to SRBC in normal mice, Test Example 1; settings: for Increased thickness of footpad / T/C (%): single oral dose; for T/C (%): control = 100
# Method: Effect of arphamenine on cell-mediated immunity in normal mice.
# Effect of arphamenines A and B on the cell-mediated immunity was tested according to a known Delayed Type Hypersensitivity (D.T.H.) technique (see P. H. Lagrange, G. B. Mackaness and T. E. Miller: "J. Exp. Med.", 139, 1529~1539 (1974)) using mice immunized with sheep red blood cells (SRBC) as the antigen inoculated to the foot-pad pad of the mice.
# Thus, 10^8 SRBC suspended in 0.05 ml of physiological saline was inoculated by subcutaneous injection to the one side of hind footpad of CDF1 mice (5 mice per group, female, 8-weeks old) to make immunization. At the time of this immunization, an aqueous solution containing 5 mg/kg, 0.5 mg/kg, 0.05 mg/kg or 0.005 mg/kg of arphamenine A or B was administered orally at a single dose to each test mice. 4 Days after the immunization, 10^8 SRBC in 0.05 ml of physiological saline was injected subcutaneously into the other side of the hind footpad of the test mice for elicitation of D.T.H. response. 24 Hours after the eliciting injection, the thickness (in mm) of the hind footpad having received the eliciting injection of SRBC was measured with calipers. At the same time, the thickness of the other side of footpad which had not received the eliciting injection of SRBC was also measured in each mouse.
# The increase of footpad thickness (the swelling degree) was calculated by the following equation: [formula]
# The effect of arphamenine on the DTH response was evaluated by the following equation: [formula]
# Therefore, the assumption was here that the value for the control mice (untreated) was evaluated to be 100%.
# mice = experiment: Acute toxicity tests in mice by intravenous injection; assay type: in vivo; settings: iv. dose of 150 mg/kg
# Method: Acute toxicity tests in mice by intravenous injection have shown that no deaths are caused by arphamenine A in an iv. dose of 250 mg/kg or by arphamenine B in an iv. dose of 150 mg/kg. […] These new compounds are therefore useful as immunopotentiators and anti-tumor immunomodulators or as adjuvants to various chemotherapeutic agents for use in the treatment of carcinomas.
# Ehrlich Solid Tumor = experiment: Anti-tumor activity against Ehrlich Solid Tumor, Test Example 3; assay type: in vivo, ddY mice
# Method: Anti-tumor activity of arphamenine against Ehrlich Solid Tumor.
# 3×10^6 cells of Ehrlich ascites tumor were transplanted subcutaneously into the flank of ddY mice (8-week old, female, 5 mice per group). The day of this transplantation was designated as Day 0. Then, 0.5, 0.05 or 0.005 mg/kg of the test compound dissolved in physiological saline solution was orally administered to the mice a total of 7 times on alternate days until Day 15, beginning on Day 1. On day 30, the size (shorter diameter^2 ×longer diameter/2) of tumor and the weight of tumor were measured. The results in this treated group of mice were compared with those in the control group of mice to calculate tumor inhibition rate (TIR, %) according to the following equation: [formula] where C denotes the size or weight of tumor in the control group, and T denotes the size or weight of tumor in the treated group.
# aminopeptidase B = target: T1, aminopeptidase B (Rattus norvegicus, UniProt O09175); experiment: Inhibition of aminopeptidase B (arginine-β-naphthylamide degradation, modified Hoppusu method); assay type: biochemical
# T1 construct: an aminopeptidase B which had been purified with DEAE-Cellulose; from tissue
# T1 sequence (O09175 1-650): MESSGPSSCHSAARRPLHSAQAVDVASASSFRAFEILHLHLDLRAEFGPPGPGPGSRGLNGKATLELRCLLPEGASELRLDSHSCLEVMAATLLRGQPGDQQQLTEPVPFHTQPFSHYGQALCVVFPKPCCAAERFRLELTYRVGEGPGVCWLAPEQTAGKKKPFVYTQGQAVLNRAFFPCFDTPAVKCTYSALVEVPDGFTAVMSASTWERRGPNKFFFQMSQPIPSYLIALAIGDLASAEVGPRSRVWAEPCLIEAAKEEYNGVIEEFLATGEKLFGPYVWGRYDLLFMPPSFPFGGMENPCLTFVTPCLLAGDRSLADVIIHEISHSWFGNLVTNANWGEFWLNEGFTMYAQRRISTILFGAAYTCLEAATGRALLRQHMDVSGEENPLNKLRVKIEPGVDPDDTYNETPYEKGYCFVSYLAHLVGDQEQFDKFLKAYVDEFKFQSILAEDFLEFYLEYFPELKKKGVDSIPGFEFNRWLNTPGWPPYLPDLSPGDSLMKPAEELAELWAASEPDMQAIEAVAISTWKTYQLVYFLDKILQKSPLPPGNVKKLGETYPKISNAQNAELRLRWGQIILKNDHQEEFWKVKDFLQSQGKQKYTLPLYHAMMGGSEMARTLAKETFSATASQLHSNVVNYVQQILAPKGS
# Method: Tracing of arphamenine which was made during the course of cultivation of the arphamenine-producing strain, as well as during the course of recovery and purification of arphamenine was conducted by determining the anti-aminopeptidase B potency of arphamenine according to the following methods.
# In detail, 0.5 ml of 0.1 M tris-hydrochloride buffer solution (pH 7.0) and 0.25 ml of a solution containing an arphamenine specimen were added to 0.25 ml of a substrate solution containing 0.002 M arginine-β-naphthylamide. The mixed solution so obtained was heated at 37° C. for 3 minutes. To the heated solution was added 5 μl of a solution of an aminopeptidase B which had been purified with DEAE-Cellulose according to the enzyme-purification technique of Hoppusu et al. The resulting mixture was reacted for 30 minutes at 37° C., and the resultant reaction mixture was admixed with 1 ml of 1.0 M acetate buffer solution (pH 4.2) containing Fast Garnet GBC (o-aminoazotoluene, diazonium salt) at a concentration of 1 mg/ml and a surfactant "Tween" 20 at a concentration of 10% to stop the enzyme reaction. After allowing the resulting mixture to stand at ambient temperature for 15 minutes, absorbance (a) at 525 nm of the reaction solution was measured. On the other hand, adsorbance (b) at 525 nm of a control reaction solution obtained from the blank test using the buffer solution containing no arphamenine was measured. Percent of inhibition to the aminopeptidase B was calculated from the equation [(b-a)/b]×100.
# [3] = 0.05 mg/kg orally, 7 times on alternate days, day 30
compound,measurement,setting,value
N=C(N)NCCCC(N)C(=O)CC(Cc1ccc(O)cc1)C(=O)O (stereo not drawn) [Arphamenine B],cell-mediated immunity depressed by the tumor (in words),[1]; tumor-bearing,modulate the cell-mediated immunity depressed by the tumor
same,Increased thickness of footpad,"[2]; Table 2, 0.005 mg/kg",12.4 ± 1.40 × 0.1 mm
same,T/C (%),"[2]; Table 2, 0.005 mg/kg",143%
same,Increased thickness of footpad,"[2]; Table 2, 0.05 mg/kg",14.0 ± 1.33 × 0.1 mm
same,T/C (%),"[2]; Table 2, 0.05 mg/kg",161%
same,Increased thickness of footpad,"[2]; Table 2, 0.5 mg/kg",14.7 ± 1.74 × 0.1 mm
same,T/C (%),"[2]; Table 2, 0.5 mg/kg",169%
same,Increased thickness of footpad,"[2]; Table 2, 5 mg/kg",13.7 ± 1.77 × 0.1 mm
same,T/C (%),"[2]; Table 2, 5 mg/kg",157%
same,cell-mediated immunity in normal animals (in words),[2]; normal animals,potentiate the cell-mediated immunity in normal animals
same,"deaths, acute toxicity",mice,no deaths
same,host-mediated anti-tumor effect (in words),Ehrlich Solid Tumor; summary statement,exhibit a host-mediated anti-tumor effect
same,IC50,"aminopeptidase B; crude powder after CM-Sephadex C-25, Example 3, read-out: anti-aminopeptidase B potency, IC50 (converted)",6.84 nM
same,IC50,"aminopeptidase B; light yellow powder after Biogel P-2, Examples 8 and 9, read-out: anti-aminopeptidase B potency (IC50) (converted)",56.5 nM
"CC(C)C[C@H](NC(=O)[C@@H](O)[C@H](N)Cc1ccccc1)C(=O)O [Bestatin, reference compound]",Increased thickness of footpad,"[1]; Table 3, 5 mg/kg intraperitoneally once daily, 4 days",6.0 ± 0.96 × 0.1 mm
same,T/C (%),"[1]; Table 3, 5 mg/kg intraperitoneally once daily, 4 days, control = 100",133%
same,Increased thickness of footpad,"[2]; Table 1, 0.5 mg/kg",12.5 ± 1.24 × 0.1 mm
same,T/C (%),"[2]; Table 1, 0.5 mg/kg",151%
same,Increased thickness of footpad,"[2]; Table 2, 0.5 mg/kg",13.0 ± 1.13 × 0.1 mm
same,T/C (%),"[2]; Table 2, 0.5 mg/kg",149%
same,"TIR (%), tumor size",Ehrlich Solid Tumor; [3],60.6%
same,"TIR (%), tumor weight",Ehrlich Solid Tumor; [3],44.9%
same,Average weight of tumor,"Ehrlich Solid Tumor; 0.05 mg/kg orally, 7 times on alternate days, day 30, **P < 0.05 (Ttest)",1.47 ± 0.92 g
same,Average size of tumor,"Ehrlich Solid Tumor; 0.05 mg/kg orally, 7 times on alternate days, day 30, *P < 0.1 (Ttest)",2089 ± 1946 mm^3

# Reference: patent publication US4595698A, “Physiologically active substance, arphamenine and production thereof” (Zaidan Hojin Biseibutsu Kagaku Kenkyu Kai, priority 1982, dated 1986)
